Source: ChEMBL document CHEMBL2040764, “Bioactive briarane diterpenoids from the South China Sea gorgonian Dichotella gemmacea” (Bioorg Med Chem Lett, 2012)
Calls of active or inactive are those of the source. No cut-off for these calls is given here.

What was measured:
Escherichia coli [1] = assay: Antibacterial activity against Escherichia coli at 0.05 mg by agar diffusion test; assay type: functional; details: read-out: DIZ
Priestia megaterium [2] = assay: Antibacterial activity against Bacillus megaterium at 0.05 mg by agar diffusion test; assay type: functional; details: read-out: DIZ
Microbotryum violaceum [3] = assay: Antifungal activity against Microbotryum violaceum at 0.05 mg by agar diffusion test; assay type: functional; details: read-out: DIZ
Zymoseptoria tritici = assay: Antifungal activity against Septoria tritici at 0.05 mg by agar diffusion test; details: read-out: DIZ
A549 = assay: Cytotoxicity against human A549 cells by MTT assay; assay type: functional, cell-based
MG-63 = assay: Cytotoxicity against human MG63 cells by MTT assay; assay type: functional, cell-based
Escherichia coli [4] = assay: Antibacterial activity against Escherichia coli at 2 mg/ml by agar diffusion test; assay type: functional; details: read-out: DIZ
Priestia megaterium [5] = assay: Antibacterial activity against Bacillus megaterium at 2 mg/ml by agar diffusion test; assay type: functional, organism-based
Microbotryum violaceum [6] = assay: Antifungal activity against Microbotryum violaceum at 2 mg/ml by agar diffusion test; assay type: functional; details: read-out: DIZ
[7] = system: Zymoseptoria tritici (Septoria tritici); assay: Antifungal activity against Septoria tritici at 2 mg/ml by agar diffusion test; details: read-out: DIZ

SMILES: CC(=O)N1CCN(c2ccc(OCC3COC(Cn4ccnc4)(c4ccc(Cl)cc4Cl)O3)cc2)CC1 (stereo unspecified) [KETOCONAZOLE]
- zone of inhibition at 50 µg/disc (Escherichia coli [1]): 18 mm
- zone of inhibition at 50 µg/disc (Priestia megaterium [2]): 18 mm
- zone of inhibition at 50 µg/disc (Microbotryum violaceum [3]): 30 mm
- zone of inhibition at 50 µg/disc (Zymoseptoria tritici): 25 mm

SMILES: C=C1[C@H]2O[C@]3([C@@H](C)C(=O)O[C@H]3[C@H]1Cl)[C@@H](OC(C)=O)[C@H]1[C@@]3(CO3)[C@H](OC(C)=O)C[C@H](OC(C)=O)[C@]1(C)[C@@H](OC(C)=O)[C@H]2OC(C)=O (relative stereo)
- IC50 (A549): > 45.7 µM
- IC50 (MG-63): > 45.7 µM
- zone of inhibition at 2000 µg/mL (Escherichia coli [4]): 20 mm
- Activity (Priestia megaterium [5]): inactive
- zone of inhibition at 2000 µg/mL (Microbotryum violaceum [6]): 15 mm
- zone of inhibition at 2000 µg/mL [7]: 12 mm

SMILES: C=C1[C@H](OC(C)=O)C[C@H](OC(C)=O)[C@@]2(C)[C@@H](OC(=O)CC(C)C)C[C@@H](OC(C)=O)[C@]3(CO3)[C@@H]2[C@H](OC(C)=O)[C@]2(O)[C@@H](C)C(=O)O[C@H]2[C@H]1Cl (relative stereo)
- IC50 (A549): 18 µM
- IC50 (MG-63): 15.1 µM
- zone of inhibition at 2000 µg/mL (Escherichia coli [4]): 20 mm
- Activity (Priestia megaterium [5]): inactive
- zone of inhibition at 2000 µg/mL (Microbotryum violaceum [6]): 9.5 mm
- zone of inhibition at 2000 µg/mL [7]: 9.5 mm

SMILES: C=C1[C@H]2O[C@]3([C@@H](C)C(=O)O[C@H]3[C@H]1Cl)[C@@H](OC(C)=O)[C@H]1[C@@]3(CO3)[C@H](OC(=O)CC(C)C)C[C@H](OC(C)=O)[C@]1(C)[C@@H](OC(C)=O)[C@H]2OC(C)=O (relative stereo)
- IC50 (A549): < 0.3 µM
- IC50 (MG-63): < 0.3 µM
- zone of inhibition at 2000 µg/mL (Escherichia coli [4]): 34 mm
- Activity (Priestia megaterium [5]): inactive
- zone of inhibition at 2000 µg/mL (Microbotryum violaceum [6]): 11 mm
- zone of inhibition at 2000 µg/mL [7]: 13 mm

SMILES: C=C1[C@H](Cl)[C@@H]2OC(=O)[C@H](C)[C@]23O[C@@H]1[C@H](OC(C)=O)[C@H](OC(C)=O)[C@@]1(C)[C@@H](OC(C)=O)CC[C@]2(CO2)[C@@H]1[C@@H]3OC(C)=O [PRAELOLIDE]
- IC50 (A549): > 50.1 µM
- IC50 (MG-63): > 50.1 µM
- zone of inhibition at 2000 µg/mL (Escherichia coli [4]): 18 mm
- Activity (Priestia megaterium [5]): inactive
- zone of inhibition at 2000 µg/mL (Microbotryum violaceum [6]): 11 mm
- zone of inhibition at 2000 µg/mL [7]: 15 mm

SMILES: C=C1[C@H](OC(C)=O)C[C@H](OC(C)=O)[C@@]2(C)[C@@H](OC(C)=O)C[C@@H](OC(=O)CC(C)C)[C@]3(CO3)[C@@H]2[C@H](OC(C)=O)[C@]2(O)[C@@H](C)C(=O)O[C@H]2[C@H]1Cl (relative stereo)
- IC50 (A549): 16.9 µM
- IC50 (MG-63): 18 µM
- zone of inhibition at 2000 µg/mL (Escherichia coli [4]): 19 mm
- Activity (Priestia megaterium [5]): inactive
- zone of inhibition at 2000 µg/mL (Microbotryum violaceum [6]): 14 mm
- zone of inhibition at 2000 µg/mL [7]: 14 mm

SMILES: C=C1[C@H](OC(C)=O)C[C@H](OC(C)=O)[C@@]2(C)[C@@H](OC(C)=O)C[C@@H](OC(C)=O)[C@]3(CO3)[C@@H]2[C@H](OC(C)=O)[C@]2(O)[C@@H](C)C(=O)O[C@H]2[C@H]1Cl (relative stereo)
- IC50 (A549): < 1.5 µM
- IC50 (MG-63): 20.5 µM
- zone of inhibition at 2000 µg/mL (Escherichia coli [4]): 20 mm
- Activity (Priestia megaterium [5]): inactive
- zone of inhibition at 2000 µg/mL (Microbotryum violaceum [6]): 11 mm
- zone of inhibition at 2000 µg/mL [7]: 13 mm

SMILES: CC1(C)S[C@@H]2[C@H](NC(=O)Cc3ccccc3)C(=O)N2[C@H]1C(=O)O [PENICILLIN G]
- zone of inhibition at 50 µg/disc (Escherichia coli [1]): 26 mm
- zone of inhibition at 50 µg/disc (Priestia megaterium [2]): 18 mm
- zone of inhibition at 50 µg/disc (Microbotryum violaceum [3]): 14 mm
- zone of inhibition at 50 µg/disc (Zymoseptoria tritici): 12 mm

SMILES: C=C1CC[C@H](OC(C)=O)[C@@]2(C)[C@@H](OC(C)=O)C[C@@H](OC(=O)CC(C)C)[C@]3(CO3)[C@@H]2[C@H](OC(C)=O)[C@]2(O)[C@@H](C)C(=O)O[C@H]2[C@H]1Cl [JUNCENOLIDE J]
- IC50 (A549): > 46.7 µM
- IC50 (MG-63): > 46.7 µM
- zone of inhibition at 2000 µg/mL (Escherichia coli [4]): 11 mm
- Activity (Priestia megaterium [5]): inactive
- zone of inhibition at 2000 µg/mL (Microbotryum violaceum [6]): 10 mm
- zone of inhibition at 2000 µg/mL [7]: 12 mm

SMILES: COc1cccc2c1C(=O)c1c(O)c3c(c(O)c1C2=O)C[C@@](O)(C(=O)CO)C[C@@H]3O[C@H]1C[C@H](N)[C@H](O)[C@H](C)O1 [DOXORUBICIN]
- IC50 (MG-63): 3.2 µM

SMILES: CN[C@@H]1[C@H](O[C@H]2[C@H](O[C@H]3[C@H](O)[C@@H](O)[C@H](N=C(N)N)[C@@H](O)[C@@H]3N=C(N)N)O[C@@H](C)[C@]2(O)C=O)O[C@@H](CO)[C@H](O)[C@H]1O [STREPTOMYCIN]
- zone of inhibition at 50 µg/disc (Escherichia coli [1]): 18 mm
- zone of inhibition at 50 µg/disc (Priestia megaterium [2]): 11 mm
- zone of inhibition at 50 µg/disc (Microbotryum violaceum [3]): 16 mm
- zone of inhibition at 50 µg/disc (Zymoseptoria tritici): 11 mm

SMILES: C=C1[C@H](OC(=O)CC(C)C)C[C@H](OC(C)=O)[C@@]2(C)[C@@H](OC(C)=O)[C@@H](OC(=O)CC(C)C)[C@@H](OC(C)=O)[C@]3(CO3)[C@@H]2[C@H](OC(C)=O)[C@]2(O)[C@@H](C)C(=O)O[C@H]2[C@H]1Cl (relative stereo)
- IC50 (A549): 19.1 µM
- IC50 (MG-63): 17.4 µM
- zone of inhibition at 2000 µg/mL (Escherichia coli [4]): 17 mm
- Activity (Priestia megaterium [5]): inactive
- zone of inhibition at 2000 µg/mL (Microbotryum violaceum [6]): 13 mm
- zone of inhibition at 2000 µg/mL [7]: 17 mm
